What was measured:
[1] = Cytotoxicity using CCK-8 kit; format: cell-based; conditions: for viability at 72 h, 60 µM: 72 hours after addition, concentration of 60 µM, read-out: cell survival rate; for cytotoxicity: CCK-8 kit (Fig. 6)
Description: When base acetamide glycerin ether molecules should is to be used as novel biomaterials in the field of gene therapy, they must have good biocompatibility. Two base acetamide glycerin ether compounds (DOCA and DOTA) were studied for cytotoxicity using CCK-8 kit. […] After 72 hours of addition of the base acetamide glycerin ether compound at a concentration of 60 µM, the cell survival rate was close to 100%, indicating good biocompatibility (Fig. 6).

[2] = tested on: Hela cells; assay: Transfection of FAM-labeled polyA/G, fluorescence intensity by flow cytometry; format: cell-based; conditions: liposomes mixed with FAM-polyA at base ratio 5/1, 100 nM FAM-polyA, 4 hours, Hela cells (Fig. 7)
From the text: Taking DNTA and DNCA as examples, FAM-labeled polyA/G was used as a template to study the nucleic acid transfection abilities of thymine base acetamide glycerin ethers. The specific coating and transfection process is as follows: DNTA or DNCA liposomes were formulated as mixed solutions with FAM-polyA or FAM-polyG at a base ratios of 5/1. […] The DNA-free and DNA-only wells were used as two negative controls, and the transfection reagent Lipofectamine 2000-DNA complex (the method of addition of transfection reagent and DNA group according to the protocol) was added as a positive control; • (3) Washing three times with 500 µL PBS; • (4) After 4 hours, the liquids in the culture wells were aspirated, after adding 250 µL of 5% trypsin each, they were placed in 1.5 mL EP tubes, the cells were fixed with 4% paraformaldehyde for 15 min; • (5) Centrifuging, discarding the supernatant, adding 400 µL PBS in each tube; • (6) Fluorescence intensity was measured by using flow cytometry;

[3] = tested on: MCF-7 cells; assay: Antisense nucleic acid (Cenersen) uptake; format: cell-based; conditions: liposomes, compared with blank group and DOCA/DOTA liposome groups (Fig. 8)
Description: The cells used in the transfection experiments were Hela cells. • (1) Plating: 300,000 cells were added to the six-well plate, and the volume per well was 1.8 mL; • (2) After 18-24 h, the samples were diluted in an appropriate amount of opti-MEM, blowing and suction with a pipette to mix well, 20 µL of the mixed […] The DNA-free and DNA-only wells were used as two negative controls, and the transfection reagent Lipofectamine 2000-DNA complex (the method of addition of transfection reagent and DNA group according to the protocol) was added as a positive control; • (3) Washing three times with 500 µL PBS; • (4) After 4 hours, the liquids in the culture wells were aspirated, after adding 250 µL of 5% trypsin each, they were placed in 1.5 mL EP tubes, the cells were fixed with 4% paraformaldehyde for 15 min; • (5) Centrifuging, discarding the supernatant, adding 400 µL PBS in each tube; • (6) Fluorescence intensity was measured by using flow cytometry;
The procedure was the same as the transfection experiments of DNCA- and DNTA-packed PolyG/PolyA (using DOCA and DOTA as controls), the cell line was selected from MCF-7 cell line.

[4] = Particle size and morphology of liposomes by electron microscopy; format: physicochemical; conditions: liposome/nanoparticles self-assembled in water, electron microscopy (Fig. 5)
Description: The base-acetamide glycerin ether molecule has an amphiphilic structure and can be prepared into a supramolecular structure such as a liposome. Taking DNTA as an example, the preparation method of liposome is as follows: DNTA (1.18 mg, 1.56 µmol) is dissolved in methanol (1 mL), vortexed to fully dissolve, after centrifugation, DNTA methanol solution (12.8 µL) is measured out and adding to a 200 µL centrifuge tube, added with PBS (100 µL), vortexed (10 s) to mix well. The solution was placed in a PCR program for annealing. Procedure: Heating at 95°C for 10 minutes, cool down 5°C every 5 minutes until 15°C, then store at 4°C. After annealing was completed, the centrifuge tube was incubated at 40°C for 30 min for the complete evaporation of methanol to obtain the liposome solution.
Under transmission electron microscope (TEM), it can be seen that the neutral base lipid carrier molecules DNCA and DNTA can form stable and uniform nanoparticles in aqueous solution. The size of the DNTA molecules assembled in water is around 150 nm. The size of the liposome formed by self-assembly of DNCA carrier molecules in water is around 180 nm (Fig. 5).

size [4]	Structure (SMILES)	viability at 72 h, 60 µM [1] [%]	cytotoxicity [1]	transfection of FAM-polyA into cells [2]	uptake of antisense nucleic acid [3]
around 180 nm	CCCCCCCC/C=C\CCCCCCCCOCC(CNC(=O)Cn1ccc(N)nc1=O)OCCCCCCCC/C=C\CCCCCCCC (stereo not shown) [DNCA, 1,2,-bis(oleyl)-glycero-3-amine-(cytosin-1-yl)-acetyl ester]	~100	no obvious cytotoxicity	can successfully transport FAM-polyA into cells	could significantly increase the uptake ability of MCF-7 cells
around 150 nm	CCCCCCCC/C=C\CCCCCCCCOCC(CNC(=O)Cn1cc(C)c(=O)[nH]c1=O)OCCCCCCCC/C=C\CCCCCCCC (stereo not shown) [DNTA, 1,2,-bis(oleyl)-glycero-3-amine-(thymidine-1-yl)-acetyl ester]	~100	no obvious cytotoxicity	can successfully transport FAM-polyA into cells	could significantly increase the uptake ability of MCF-7 cells

Reference: EP3539964A1, “BASE ACETAMIDE GLYCERIN ETHER MOLECULE, CHEMICAL SYNTHESIS METHOD THEREFOR, AND APPLICATIONS THEREOF IN FIELD OF GENE THERAPY” (Peking University, priority 2016, dated 2018)
